Data: patent US9717733B2, “Edible plant-derived microvesicle compositions including conjugated therapeutic agents and methods for using the same” (priority 2014, dated 2017)

How the values were obtained:
[1] = tested on: DSS-induced colitis in mice; experiment: DSS-induced colitis, therapeutic effect of GMTX; assay type: in vivo, mouse; conditions: 5 mg/kg oral on day 3, 5 and 6 of DSS
Protocol: Colitis was induced in mice by addition of 2% (wt/vol) DSS (MW 36-50 KD molecular weight, MP Biomedicals, OH) in their drinking water for the duration of the study. DSS solution was freshly prepared every other day. Body weight and physical activity were monitored daily. To test the protective effect of GDNs, mice fasted for 4 h were orally given either PBS or 10 mg/kg of GDNs daily for 7 days and then treated with 2% DSS in drinking water for 7 days to induce colitis with continued administration of GDNs. To test the therapeutic effect of GMTX, colitis was first induced in mice by providing 2% DSS in their drinking water. On day 3, 5 and 6 of DSS-induced colitis, mice were treated with free MTX (5 mg/kg body weight) or GMTX (MTX equaled to 5 mg/kg) by oral administration. […]
For histopathology, tissues were fixed in 10% neutral formalin and then embedded in paraffin. […] Histological examination was performed in a blinded fashion and the severity of colitis was scored as described previously. […] E-cadherin and F4/80 binding was detected by Alexa Fluor 488 conjugated goat anti-mouse IgG or goat anti-rat IgG (1:600, Invitrogen), respectively. […]
To assess the local levels of IL-6, IL-1β, TNF-α, organ cultures were generated from naïve, GDN, PBS/DSS and GDN/DSS challenged mice. […] The local levels of PGE2 were determined by a PGE2-specific EIA (Cayman Chemical, Ann Arbor, Mich.) as described previously. […]

Raw264.7 macrophages = experiment: Internalization assay (GDN uptake with endocytosis inhibitors); assay type: cell-based, mouse; conditions: 30 min pretreatment: 50 μM amiloride, 12.5 μM chlorpromazine or 100 μM indomethacin; 2 μg/ml PKH26-labeled GDNs, 3 h
Protocol: Macrophages were plated on Lab-Tek chamber slide (Sigma) and incubated for 24 h in growth medium. Before the uptake assay, GDNs were labeled with PKH26, sucrose gradient purified and diluted in PBS. Uptake was performed by incubating cell cultures with 2 μg/ml of GDNs for 3 h in a humid chamber (37° C., 5% CO2). For inhibition experiments, cell cultures were pre-incubated with individual inhibitors for 30 min before performing the uptake experiments.

Row | Structure (SMILES) | symptoms of colitis vs PBS treated mice (colon tissue damage, colon length reduction, E-cadherin expression) [1] | inhibition of GDN uptake (Raw264.7 macrophages)
1 | CN(Cc1cnc2nc(N)nc(N)c2n1)c1ccc(C(=O)N[C@@H](CCC(=O)O)C(=O)O)cc1 [free MTX, methotrexate] | aggravated symptoms of colitis | 
2 | COc1ccc2c(c1)c(CC(=O)O)c(C)n2C(=O)c1ccc(Cl)cc1 [indomethacin] |  | did not significantly alter
